According to patent US20200268702A1, “METHODS OF TREATING […]” (Amarin Pharmaceuticals Ireland Limited, priority 2013, published 2020):

Tested on: patients with fasting triglyceride levels ≥200 mg/dl and <500 mg/dl despite statin therapy
Test: ANCHOR study: 12-week placebo-controlled study of >96% E-EPA on statin therapy, metabolic syndrome subgroup
Type: in vivo, human
Method: A multi-center, placebo-controlled, randomized, double-blind, 12-week study was performed to evaluate the efficacy and safety of >96% E-EPA in patients with fasting triglyceride levels ≥200 mg/dl and <500 mg/dl despite statin therapy (the mean of two qualifying entry values needed to be ≥185 mg/dl and at least one of the values needed to be ≥200 mg/dl). The primary objective of the study was to determine the efficacy of >96% E-EPA 2 g daily and 4 g daily, compared to placebo, in lowering fasting TG levels in patients with high risk for cardiovascular disease and with fasting TG levels ≥200 mg/dL and <500 mg/dL, despite treatment to LDL-C goal on statin therapy.
The population for this study was men and women >18 years of age with a body mass index ≤45 kg/m^2 with fasting TG levels greater than or equal to 200 mg/dl and less than 500 mg/dl and on a stable does of statin therapy (with or without ezetimibe). The statin was atorvostatin, rosuvastatin or simvastatin. The dose of statin must have been stable for ≥4 weeks prior to the LDL-C/TG baseline qualifying measurement for randomization. The statin dose was optimized such that the patients are at their LDL-C goal at the LDL-C/TG baseline qualifying measurements. The same statin at the same dose was continued until the study ended.
Approximately 702 patients were randomized at approximately 80 centers in the U.S. The study was a 18- to 20-week, Phase 3, multi-center study consisting of 2 study periods: (1) A 6- to 8-week screening period that included a diet and lifestyle stabilization, a non-statin lipid-altering treatment washout, and an LDL-C and TG qualifying period and (2) A 12-week, double-blind, randomized, placebo-controlled treatment period.
After confirmation of qualifying fasting LDL-C and TG values, eligible patients entered a 12-week, randomized, double-blind treatment period. At Visit 4 (Week 0), patients were randomly assigned to 1 of the following treatment groups: • >96% E-EPA 2 g daily, • >96% E-EPA 4 g daily, or • Placebo.
>96% E-EPA was provided in 1 g liquid-filled, oblong, gelatin capsules. The matching placebo capsule was filled with light liquid paraffin and contained 0 g of >96% E-EPA. >96% E-EPA capsules were to be taken with food (i.e. with or at the end of a meal).
During the double-blind treatment period, patients were to take 2 capsules (>96% E-EPA or matching placebo) in the morning and 2 capsules in the evening for a total of 4 capsules per day. • Patients in the >96% E-EPA 2 g/day treatment group received 1>96% E-EPA 1 g capsule and 1 matching placebo capsule in the morning and in the evening. • Patients in the >96% E-EPA 4 g/day treatment group received 2>96% E-EPA 1 g capsules in the morning and evening.
The primary efficacy variable for the double-blind treatment period was percent change in TG from baseline to Week 12 endpoint. […]

[1] = 4 g/day, week 12, listed as IPE

CC/C=C\C/C=C\C/C=C\C/C=C\C/C=C\CCCC(=O)OCC [AMR101, ethyl eicosapentaenoate]
Apo B, Change from Baseline, % (2 g/day, week 12): 3.3% | Apo B, End of Treatment, median (IQR) (2 g/day, week 12): 95.0 (23.00) mg/dL | Apo B, Median % Change From Baseline vs Placebo (2 g/day, week 12): −2.6% | HDL-C, Change from Baseline, % (2 g/day, week 12): 2.2% | HDL-C, End of Treatment, median (IQR) (2 g/day, week 12): 38.0 (12.00) mg/dL | HDL-C, Median % Change From Baseline vs Placebo (2 g/day, week 12): −1.4% | LDL-C, Change from Baseline, % (2 g/day, week 12): 2.5% | LDL-C, End of Treatment, median (IQR) (2 g/day, week 12): 87.0 (28.00) mg/dL | LDL-C, Median % Change From Baseline vs Placebo (2 g/day, week 12): −2.4% | Non-HDL-C, Change from Baseline, % (2 g/day, week 12): 2.7% | Non-HDL-C, End of Treatment, median (IQR) (2 g/day, week 12): 134.0 (44.00) mg/dL | Non-HDL-C, Median % Change From Baseline vs Placebo (2 g/day, week 12): −4.4% | TG, Change from Baseline, % (2 g/day, week 12): −5.8% | TG, End of Treatment, median (IQR) (2 g/day, week 12): 246.0 (117.00) mg/dL | TG, Median % Change From Baseline vs Placebo (2 g/day, week 12): −10.3% | hsCRP, Change from Baseline, % (2 g/day, week 12): 8.4% | hsCRP, End of Treatment, median (IQR) (2 g/day, week 12): 2.5 (3.35) mg/L | hsCRP, Median % Change From Baseline vs Placebo (2 g/day, week 12): −7.6% | Apo B, Change from Baseline, % (4 g/day, week 12): −2.2% | Apo B, End of Treatment, median (IQR) (4 g/day, week 12): 89.0 (26.00) mg/dL | HDL-C, Change from Baseline, % (4 g/day, week 12): 0.0% | HDL-C, End of Treatment, median (IQR) (4 g/day, week 12): 36.0 (12.00) mg/dL | HDL-C, Median % Change From Baseline vs Placebo (4 g/day, week 12): −4.0% | LDL-C, Change from Baseline, % (4 g/day, week 12): 2.1% | LDL-C, End of Treatment, median (IQR) (4 g/day, week 12): 83.0 (31.00) mg/dL | Non-HDL-C, Change from Baseline, % (4 g/day, week 12): −5.3% | Non-HDL-C, End of Treatment, median (IQR) (4 g/day, week 12): 121.0 (37.00) mg/dL | TG, Change from Baseline, % (4 g/day, week 12): −17.4% | TG, End of Treatment, median (IQR) (4 g/day, week 12): 221.0 (93.50) mg/dL | hsCRP, Change from Baseline, % (4 g/day, week 12): −3.4% | hsCRP, End of Treatment, median (IQR) (4 g/day, week 12): 2.0 (3.00) mg/L | Apo B, Median % Change From Baseline vs Placebo [1]: −8.8% | LDL-C, Median % Change From Baseline vs Placebo [1]: −5.2% | Non-HDL-C, Median % Change From Baseline vs Placebo [1]: −13.5% | TG, Median % Change From Baseline vs Placebo [1]: −21.7% | hsCRP, Median % Change From Baseline vs Placebo [1]: −23.0%
